Drawing on US8148367B2 (Takeda Pharmaceutical Company Limited, priority 2008, dated 2012), this text covers IC50 for 30 compounds.

This experiment has as its target T1, Recombinant human renin (Homo sapiens, UniProt P00797).
T1 construct: isolate the active form (residues 67-406); made in house; host or cells: FreeStyle 293-F cells, transient expression of pcDNA3.1(+)/hREN
T1 sequence (P00797 67-406): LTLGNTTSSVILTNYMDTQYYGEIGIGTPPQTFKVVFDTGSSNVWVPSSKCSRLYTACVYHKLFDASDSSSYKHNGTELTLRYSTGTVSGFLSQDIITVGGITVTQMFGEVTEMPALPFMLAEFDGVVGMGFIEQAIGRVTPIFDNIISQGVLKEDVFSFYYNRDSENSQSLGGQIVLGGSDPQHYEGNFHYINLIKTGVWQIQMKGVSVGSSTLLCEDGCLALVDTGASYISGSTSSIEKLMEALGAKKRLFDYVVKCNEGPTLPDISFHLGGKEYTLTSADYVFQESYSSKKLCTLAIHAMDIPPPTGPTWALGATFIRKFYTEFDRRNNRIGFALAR
Briefly: In vitro enzymatic activity assay of renin inhibitors (fluorescence, QXL520/HiLyteFluo488 peptide substrate). The experiment is classed as biochemical. The conditions noted are these: recombinant human renin 3 nM, 1 μM substrate, pre-incubated 10 minutes at 37° C., incubation one hour, pH 7.4, 5% DMSO; read-out: IC50 of Exemplified Compounds Against Renin.
`O=C(c1c(-c2ccccc2)n([C@@H]2CCCC[C@H]2O)c(=O)n1Cc1ccccc1)N1CCNCC1` [Example 105, 1-Benzyl-3-((1R,2R)-2-hydroxycyclohexyl)-4-phenyl-5-(piperazine-1-carbonyl)-1H-imidazol-2(3H)-one]: the 50% inhibitory concentration (IC50) – broadly, the midpoint of a concentration-inhibition curve – is over 1 µM.
Take `O=C(c1c(-c2ccccc2)n([C@@H]2CCCC[C@H]2O)c(=O)n1Cc1cccc(Oc2ccccc2)c1)N1CCNCC1` [Example 106, 1-((1R,2R)-2-Hydroxycyclohexyl)-3-(3-phenoxybenzyl)-5-phenyl-4-(piperazine-1-carbonyl)-1H-imidazol-2(3H)-one]: the IC50 is 0.1 to 0.5 µM.
For `O=C(NC[C@@H]1CNCCN1C(=O)c1[nH]c(=O)n([C@@H]2CCCC[C@H]2O)c1-c1ccccc1)c1ccccc1` [Example 107, N—(((S)-1-(1-((1R,2R)-2-Hydroxycyclohexyl)-2-oxo-5-phenyl-2,3-dihydro-1H-imidazole-4-carbonyl)piperazin-2-yl)methyl)benzamide] the value was 0.5 to 1 µM.
Next, `O=C(NC[C@@H]1CNCCN1C(=O)c1[nH]c(=O)n(C2CCCCC2)c1-c1ccccc1)c1ccccc1` [Example 108, (S)—N-((1-(1-Cyclohexyl-2-oxo-5-phenyl-2,3-dihydro-1H-imidazole-4-carbonyl)piperazin-2-yl)methyl)benzamide]: under 0.1 µM; `O=C(c1[nH]c(=O)n(-c2ccccc2)c1-c1ccccc1)N1CCNC[C@H]1Cc1ccccc1` [Example 109, (R)-4-(2-Benzylpiperazine-1-carbonyl)-1,5-diphenyl-1H-imidazol-2(3H)-one]: under 0.1 µM.
Turning to `O=C(c1[nH]c(=O)n(-c2cccc(N3CCOCC3)c2)c1-c1ccccc1)N1CCNC[C@H]1Cc1ccccc1` [Example 110, (R)-4-(2-Benzylpiperazine-1-carbonyl)-1-(3-morpholinophenyl)-5-phenyl-1H-imidazol-2(3H)-one], the IC50 is under 0.1 µM.
In the case of `O=C(c1[nH]c(=O)n(C2CCCCC2)c1-c1ccccc1)N1CCNC[C@H]1Cc1ccccc1` [Example 111, (R)-4-(2-Benzylpiperazine-1-carbonyl)-1-cyclohexyl-5-phenyl-1H-imidazol-2(3H)-one], the IC50 is under 0.1 µM.
For `COc1cccc(-n2c(-c3ccccc3)c(C(=O)N3CCNC[C@H]3Cc3ccccc3)[nH]c2=O)c1OC` [Example 112, (R)-4-(2-Benzylpiperazine-1-carbonyl)-1-(2,3-dimethoxyphenyl)-5-phenyl-1H-imidazol-2(3H)-one] the value was under 0.1 µM; for `COc1ccccc1-n1c(-c2ccccc2)c(C(=O)N2CCNC[C@H]2Cc2ccccc2)[nH]c1=O` [Example 113, (R)-4-(2-Benzylpiperazine-1-carbonyl)-1-(2-methoxyphenyl)-5-phenyl-1H-imidazol-2(3H)-one], under 0.1 µM.
For `CS(=O)(=O)c1cccc(-n2c(-c3ccccc3)c(C(=O)N3CCNC[C@H]3Cc3ccccc3)[nH]c2=O)c1` [Example 114, (R)-4-(2-Benzylpiperazine-1-carbonyl)-1-(3-(methylsulfonyl)phenyl)-5-phenyl-1H-imidazol-2(3H)-one] the value was under 0.1 µM.
For `CC(=O)N1CCCC(n2c(-c3ccccc3)c(C(=O)N3CCNC[C@H]3Cc3ccccc3)[nH]c2=O)C1` (stereo partly drawn) [Example 115, 1-(1-Acetylpiperidin-3-yl)-4-((R)-2-benzylpiperazine-1-carbonyl)-5-phenyl-1H-imidazol-2(3H)-one] the value was 0.5 to 1 µM; for `Cc1ccccc1-n1c(-c2ccccc2)c(C(=O)N2CCNC[C@H]2Cc2ccccc2)[nH]c1=O` [Example 116, (R)-4-(2-Benzylpiperazine-1-carbonyl)-5-phenyl-1-o-tolyl-1H-imidazol-2(3H)-one], under 0.1 µM.
As to `O=C(c1[nH]c(=O)n(-c2ccccc2[N+](=O)[O-])c1-c1ccccc1)N1CCNC[C@H]1Cc1ccccc1` [Example 117, (R)-4-(2-Benzylpiperazine-1-carbonyl)-1-(2-nitrophenyl)-5-phenyl-1H-imidazol-2(3H)-one], the IC50 was under 0.1 µM.
Next, `CS(=O)(=O)Nc1ccccc1-n1c(-c2ccccc2)c(C(=O)N2CCNC[C@H]2Cc2ccccc2)[nH]c1=O` [Example 118, (R)—N-(2-(4-(2-Benzylpiperazine-1-carbonyl)-2-oxo-5-phenyl-2,3-dihydro-1H-imidazol-1-yl)phenyl)methanesulfonamide]: under 0.1 µM; `CCCS(=O)(=O)Nc1ccccc1-n1c(-c2ccccc2)c(C(=O)N2CCNC[C@H]2Cc2ccccc2)[nH]c1=O` [Example 119, (R)—N-(2-(4-(2-Benzylpiperazine-1-carbonyl)-2-oxo-5-phenyl-2,3-dihydro-1H-imidazol-1-yl)phenyl)propane-1-sulfonamide]: under 0.1 µM; `O=C(Nc1ccccc1-n1c(-c2ccccc2)c(C(=O)N2CCNC[C@H]2Cc2ccccc2)[nH]c1=O)C1CC1` [Example 120, (R)—N-(2-(4-(2-Benzylpiperazine-1-carbonyl)-2-oxo-5-phenyl-2,3-dihydro-1H-imidazol-1-yl)phenyl)cyclopropanecarboxamide]: 0.1 to 0.5 µM.
Next, `CCCC(=O)Nc1ccccc1-n1c(-c2ccccc2)c(C(=O)N2CCNC[C@H]2Cc2ccccc2)[nH]c1=O` [Example 121, (R)—N-(2-(4-(2-Benzylpiperazine-1-carbonyl)-2-oxo-5-phenyl-2,3-dihydro-1H-imidazol-1-yl)phenyl)butyramide]: 0.1 to 0.5 µM; `CC(=O)Nc1ccccc1-n1c(-c2ccccc2)c(C(=O)N2CCNC[C@H]2Cc2ccccc2)[nH]c1=O` [Example 122, (R)—N-(2-(4-(2-Benzylpiperazine-1-carbonyl)-2-oxo-5-phenyl-2,3-dihydro-1H-imidazol-1-yl)phenyl)acetamide]: under 0.1 µM.
For `O=C(c1[nH]c(=O)n(-c2ccccc2NS(=O)(=O)C2CC2)c1-c1ccccc1)N1CCNC[C@H]1Cc1ccccc1` [Example 123, (R)—N-(2-(4-(2-Benzylpiperazine-1-carbonyl)-2-oxo-5-phenyl-2,3-dihydro-1H-imidazol-1-yl)phenyl)cyclopropanesulfonamide] the value was 0.1 to 0.5 µM; for `O=C(Nc1ccccc1-n1c(-c2ccccc2)c(C(=O)N2CCNC[C@H]2Cc2ccccc2)[nH]c1=O)c1ccccc1` [Example 124, (R)—N-(2-(4-(2-Benzylpiperazine-1-carbonyl)-2-oxo-5-phenyl-2,3-dihydro-1H-imidazol-1-yl)phenyl)benzamide], under 0.1 µM.
`O=C(c1[nH]c(=O)n(-c2ccccc2NS(=O)(=O)c2ccccc2)c1-c1ccccc1)N1CCNC[C@H]1Cc1ccccc1` [Example 125, (R)—N-(2-(4-(2-benzylpiperazine-1-carbonyl)-2-oxo-5-phenyl-2,3-dihydro-1H-imidazol-1-yl)phenyl)Benzenesulfonamide]: the IC50 was under 0.1 µM.
Next, `O=C(c1[nH]c(=O)n([C@H]2CCCC[C@@H]2O)c1-c1ccccc1)N1CCNC[C@H]1Cc1ccccc1` [Example 126, 4-((R)-2-Benzylpiperazine-1-carbonyl)-1-((1S,2S)-2-hydroxycyclohexyl)-5-phenyl-1H-imidazol-2(3H)-one]: under 0.1 µM.
For `CCS(=O)(=O)Nc1ccccc1-n1c(-c2ccccc2)c(C(=O)N2CCNC[C@H]2Cc2ccccc2)[nH]c1=O` [Example 127, (R)—N-(2-(4-(2-Benzylpiperazine-1-carbonyl)-2-oxo-5-phenyl-2,3-dihydro-1H-imidazol-1-yl)phenyl)ethanesulfonamide] the value was 0.1 to 0.5 µM; for `CCCCS(=O)(=O)Nc1ccccc1-n1c(-c2ccccc2)c(C(=O)N2CCNC[C@H]2Cc2ccccc2)[nH]c1=O` [Example 128, (R)—N-(2-(4-(2-Benzylpiperazine-1-carbonyl)-2-oxo-5-phenyl-2,3-dihydro-1H-imidazol-1-yl)phenyl)butane-1-sulfonamide], under 0.1 µM.
For the compound `C=CCS(=O)(=O)Nc1ccccc1-n1c(-c2ccccc2)c(C(=O)N2CCNC[C@H]2Cc2ccccc2)[nH]c1=O` [Example 129, (R)—N-(2-(4-(2-Benzylpiperazine-1-carbonyl)-2-oxo-5-phenyl-2,3-dihydro-1H-imidazol-1-yl)phenyl)prop-2-ene-1-sulfonamide], the IC50 is under 0.1 µM.
Next, `O=C(c1[nH]c(=O)n(CC2(O)CCCCC2)c1-c1ccccc1)N1CCNC[C@H]1Cc1ccccc1` [Example 130, (R)-4-(2-Benzylpiperazine-1-carbonyl)-1-((1-hydroxycyclohexyl)methyl)-5-phenyl-1H-imidazol-2(3H)-one]: under 0.1 µM; `CCCCN1CCCc2ccc(-n3c(-c4ccccc4)c(C(=O)N4CCNC[C@H]4Cc4ccccc4)[nH]c3=O)cc21` [Example 131]: under 0.1 µM; `O=C(c1[nH]c(=O)n(-c2ccc3c(c2)NCCC3)c1-c1ccccc1)N1CCNC[C@H]1Cc1ccccc1` [Example 132, (R)-4-(2-Benzylpiperazine-1-carbonyl)-5-phenyl-1-(1,2,3,4-tetrahydroquinolin-7-yl)-1H-imidazol-2(3H)-one]: under 0.1 µM.
Next, `CCCCN1CCCc2ccc(-n3c(C4CC4)c(C(=O)N4CCNC[C@H]4Cc4ccccc4)[nH]c3=O)cc21` [Example 133, (R)-4-(2-Benzylpiperazine-1-carbonyl)-1-(1-butyl-1,2,3,4-tetrahydroquinolin-7-yl)-5-cyclopropyl-1H-imidazol-2(3H)-one]: over 1 µM; `O=C(c1[nH]c(=O)n(-c2ccc3c(c2)NCCC3)c1C1CC1)N1CCNC[C@H]1Cc1ccccc1` [Example 134, (R)-4-(2-Benzylpiperazine-1-carbonyl)-5-cyclopropyl-1-(1,2,3,4-tetrahydroquinolin-7-yl)-1H-imidazol-2(3H)-one]: 0.5 to 1 µM.
